Laboratory results taken from a compilation of properties of binary mixtures (doi:10.1021/acs.jced.0c00801).

Test: xn = mol fraction of the nth substance listed
Conditions: 101 kPa

CC[n+]1ccn(C)c1.N#C[S-] + CCO
Conditions	speed of sound, 283.15 K [m/s]	speed of sound, 293.15 K [m/s]	speed of sound, 303.15 K [m/s]	speed of sound, 313.15 K [m/s]	speed of sound, 323.15 K [m/s]	viscosity, 283.15 K [mPa·s]	viscosity, 293.15 K [mPa·s]	viscosity, 303.15 K [mPa·s]	viscosity, 313.15 K [mPa·s]	viscosity, 323.15 K [mPa·s]
x1 = 0.0504	1281.9	1249.4	–	–	1155	1.93	1.58	–	–	0.94
x1 = 0.1001	1345.1	1314.4	1284.3	1254.6	1225.4	2.34	1.91	1.59	1.34	1.14
x1 = 0.2012	1466.4	1438.1	–	1382.8	1355.8	3.49	2.88	–	1.93	1.64
x1 = 0.3003	1560.9	1534	1507.4	1481.3	1455.6	4.8	3.84	3.14	2.63	2.24
x1 = 0.3945	1641	1614.9	1589.2	1563.9	1539.2	6.72	5.3	4.29	3.56	3
x1 = 0.5007	1711	1685.5	1660.4	1635.8	1611.5	9.41	7.24	5.73	4.67	3.91
x1 = 0.6016	1768.2	1743.3	1718.9	–	1671.5	12.82	9.63	7.51	–	4.97
x1 = 0.7018	1805.7	1781.1	1757	–	–	16.95	12.52	9.54	–	–
x1 = 0.8045	–	1813.9	1790	1766.5	1743.5	–	16.42	12.35	9.58	7.66
x1 = 0.8971	–	–	1813.9	–	1767.8	–	–	15.08	–	9.05
x1 = 0.951	1875.9	1851.7	–	1804.6	–	34.19	23.87	–	13	–
x1 = 1	1887.6	1863.4	1839.7	–	1793.9	38.41	26.31	19.03	–	11.1

CCO + CC[n+]1ccn(C)c1.N#C[S-]
x2 = 0
Conditions	speed of sound [m/s]	viscosity [mPa·s]
283.15 K	1194.7	1.44
313.15 K	1092.2	0.83
323.15 K	1059.1	0.7
